# Test results taken from PMC8284444, “Two β-Lactamase Variants with Reduced Clavulanic Acid Inhibition Display Different Millisecond Dynamics” (Antimicrobial Agents and Chemotherapy, 2021).
# What was measured:
# Assay type in all cases: biochemical
# [1] = target: BlaC (β-lactamase of Mycobacterium tuberculosis) (Mycobacterium tuberculosis, UniProt P9WKD3, K250R)
# [2] = target: BlaC (β-lactamase of Mycobacterium tuberculosis) (Mycobacterium tuberculosis, UniProt P9WKD3, R229S)
# [3] = target: T1, BlaC (β-lactamase of Mycobacterium tuberculosis) (Mycobacterium tuberculosis, UniProt P9WKD3, G144N)
# [4] = target: T1, BlaC (β-lactamase of Mycobacterium tuberculosis); remark: listed apart in the source
SMILES,nitrocefin hydrolysis progress curves with 10 μM clavulanic acid (reduced inhibi) [1],nitrocefin hydrolysis progress curves with 10 μM clavulanic acid [2],nitrocefin hydrolysis progress curves with 10 μM clavulanic acid (reduced inhibi) [3],nitrocefin hydrolysis by purified enzyme [4]
O=C(O)[C@H]1/C(=C/CO)O[C@@H]2CC(=O)N21 [clavulanic acid],"The G132N and K234R mutations convey resistance to inhibition, maintaining some level of activity even after prolonged exposure.",The R213S mutant was found to require more time than wt BlaC to reach full inhibition.,"The G132N and K234R mutations convey resistance to inhibition, maintaining some level of activity even after prolonged exposure.",
O=C(Cc1cccs1)N[C@@H]1C(=O)N2C(C(=O)O)=C(/C=C/c3ccc([N+](=O)[O-])cc3[N+](=O)[O-])CS[C@H]12 [nitrocefin],,,,is plotted for wild-type (WT) BlaC and single-amino-acid mutants
